Each compound was assayed against T1, PI3Kδ (Homo sapiens, UniProt O00329) (assay: PI3Kδ inhibition, modified PIK3CD Adapta TR-FRET assay). Details: recombinant GST-tagged full length PIK3CD co-expressed with PIK3R1 (p85α); 2 μM ATP, 50 μM PIP2; read-out: PI3Kδ Inhibition (pIC50) (converted).
T1 construct: The protein is full length and co-expressed with untagged PIK3R1; GST; purchased Invitrogen PV5274
Type: biochemical
Procedure, shortened: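 Full-length GST-PIK3CD co-expressed with p85α was run in 50 mM HEPES pH 7.5, 3 mM MgCl2, 1 mM EGTA, 100 mM NaCl, 0.03% CHAPS, 2 mM DTT, 1% DMSO, with 12-point compound titrations. Reactions at room temperature were started with solution containing 2 μM ATP and 50 μM PIP2. ADP was detected by Adapta TR-FRET (620 nm-ratioed).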

T1 sequence (O00329 whole entry): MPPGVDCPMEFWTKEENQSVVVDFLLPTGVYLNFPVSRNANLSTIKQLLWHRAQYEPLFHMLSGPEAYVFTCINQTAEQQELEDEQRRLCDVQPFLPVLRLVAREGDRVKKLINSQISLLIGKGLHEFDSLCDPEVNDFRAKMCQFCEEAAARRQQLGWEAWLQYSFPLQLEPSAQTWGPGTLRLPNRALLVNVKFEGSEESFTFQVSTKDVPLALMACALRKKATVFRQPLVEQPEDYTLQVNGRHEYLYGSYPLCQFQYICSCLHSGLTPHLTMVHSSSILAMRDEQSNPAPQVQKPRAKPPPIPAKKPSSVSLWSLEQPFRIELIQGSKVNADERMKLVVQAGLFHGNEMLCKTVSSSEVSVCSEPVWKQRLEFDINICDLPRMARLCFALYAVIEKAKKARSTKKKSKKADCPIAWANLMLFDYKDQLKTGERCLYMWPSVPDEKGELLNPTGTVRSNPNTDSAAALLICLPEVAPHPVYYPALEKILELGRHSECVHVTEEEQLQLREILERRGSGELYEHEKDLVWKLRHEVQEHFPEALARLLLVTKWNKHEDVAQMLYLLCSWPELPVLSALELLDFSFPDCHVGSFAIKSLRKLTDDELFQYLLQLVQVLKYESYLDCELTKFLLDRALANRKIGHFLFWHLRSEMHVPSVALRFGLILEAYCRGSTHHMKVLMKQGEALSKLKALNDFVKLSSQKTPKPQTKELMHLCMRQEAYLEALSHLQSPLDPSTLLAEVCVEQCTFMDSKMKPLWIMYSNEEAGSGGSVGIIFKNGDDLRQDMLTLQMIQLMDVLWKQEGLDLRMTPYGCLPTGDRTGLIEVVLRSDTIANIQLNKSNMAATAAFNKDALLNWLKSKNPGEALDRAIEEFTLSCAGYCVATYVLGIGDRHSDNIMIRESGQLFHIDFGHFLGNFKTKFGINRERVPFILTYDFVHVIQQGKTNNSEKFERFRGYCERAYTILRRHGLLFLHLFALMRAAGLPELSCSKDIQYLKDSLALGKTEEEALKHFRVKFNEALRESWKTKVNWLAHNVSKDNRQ
T1 sequence (P27986 whole entry partner): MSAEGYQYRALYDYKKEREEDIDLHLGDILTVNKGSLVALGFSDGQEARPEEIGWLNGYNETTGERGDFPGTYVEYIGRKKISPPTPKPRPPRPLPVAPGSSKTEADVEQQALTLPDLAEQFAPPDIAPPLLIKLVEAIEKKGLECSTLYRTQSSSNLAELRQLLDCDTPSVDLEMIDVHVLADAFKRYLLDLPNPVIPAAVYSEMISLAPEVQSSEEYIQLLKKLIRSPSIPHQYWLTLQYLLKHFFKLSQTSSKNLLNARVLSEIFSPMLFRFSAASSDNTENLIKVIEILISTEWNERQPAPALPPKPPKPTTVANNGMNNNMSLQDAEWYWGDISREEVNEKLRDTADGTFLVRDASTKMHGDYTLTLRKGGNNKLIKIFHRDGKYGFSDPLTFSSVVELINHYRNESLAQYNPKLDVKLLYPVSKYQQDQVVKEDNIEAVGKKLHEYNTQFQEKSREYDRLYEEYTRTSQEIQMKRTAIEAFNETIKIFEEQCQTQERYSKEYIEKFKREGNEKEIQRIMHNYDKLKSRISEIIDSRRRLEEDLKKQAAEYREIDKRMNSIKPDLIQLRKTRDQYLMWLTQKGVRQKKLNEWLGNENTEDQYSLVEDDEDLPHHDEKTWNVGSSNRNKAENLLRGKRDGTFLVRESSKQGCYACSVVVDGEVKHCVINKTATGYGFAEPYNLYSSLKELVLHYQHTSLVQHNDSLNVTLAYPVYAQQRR

IC50 [µM] | Compound
0.501 | O=C(CN1C[C@@H]2COCCN2c2nc(-c3ccc(CO)s3)ncc21)NCC1CCOCC1 [Example 226, (R)-2-(2-(5-(hydroxymethyl)thiophen-2-yl)-6a,7,9,10-tetrahydro-[1,4]oxazino[3,4-h]pteridin-5(6H)-yl)-N-((tetrahydro-2H-pyran-4-yl)methyl)acetamide]
0.0158 | CC(C)(O)CCCN1C[C@@H]2COCCN2c2nc(-c3cccc4[nH]ccc34)ncc21 [Example 227, (R)-5-(2-(1H-indol-4-yl)-6a,7,9,10-tetrahydro-[1,4]oxazino[3,4-h]pteridin-5(6H)-yl)-2-methylpentan-2-ol]
0.158 | Cc1ccc(C(N)=O)c(CN2CC3COCCN3c3nc(-c4cccc5[nH]ccc45)ncc32)c1 (stereo not shown) [Example 228, 2-((2-(1H-indol-4-yl)-6a,7,9,10-tetrahydro-[1,4]oxazino[3,4-h]pteridin-5(6H)-yl)methyl)-4-methylbenzamide]
0.0316 | O=C(Nc1ccc(-c2ncc3c(n2)N2CCOCC2C(=O)N3C2CCOCC2)cc1)NC1CC1 (stereo not shown) [Example 229, 1-cyclopropyl-3-(4-(6-oxo-5-(tetrahydro-2H-pyran-4-yl)-5,6,6a,7,9,10-hexahydro-[1,4]oxazino[3,4-h]pteridin-2-yl)phenyl)urea]

— US8791107B2, “N-substituted oxazinopteridines and oxazinopteridinones” (Takeda Pharmaceutical Company Limited, priority 2011, dated 2014)
